What all share (assay): MEC assay (Example 31)
Common to all, as to format: cell-based
What all share (conditions): RPMI pH 7.0, 35° C., 24-48 hr

One assay relates to A. flavus MX 5948. Summed up:
(§1)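 Yeast colonies were suspended to a 0.5 McFarland standard and diluted 1:100, while Aspergillus suspensions were diluted to ~0.2-2.5×10^4 CFU/mL final. Organisms were then exposed to 2-fold compound series in RPMI, pH 7.0, at 35° C. for approximately 24-48 hr before visual MIC/MEC reading.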

The subject of the next assay is A. fumigatus ATCC 13073. Summed up:
as §1

For the next assay, the system named is A. fumigatus MX 5944. The method in brief:
as §1

Another assay relates to A. fumigatus MYA-3626. The method in brief:
as §1

The subject of a further assay is A. fumigatus MYA-4609. Summed up:
as §1

On to `CC[C@H](C)C[C@H](C)CCCCCCCCC(=O)N[C@H]1C[C@@H](O)[C@@H](NCCN)NC(=O)[C@@H]2[C@@H](O)CCN2C(=O)[C@H]([C@H](O)CCNC(=O)[C@H](Cc2ccccc2)NC(=O)[C@H](CC(C)C)NC(=O)[C@H](CCSC)NC=O)NC(=O)[C@H]([C@H](O)[C@@H](O)c2ccc(O)cc2)NC(=O)[C@@H]2C[C@@H](O)CN2C(=O)[C@H]([C@@H](C)O)NC1=O` [Compound 1], for which the MEC with A. flavus MX 5948 was 0.12 to 1 µg/mL; in the assay on A. fumigatus ATCC 13073, 0.12 to 2 µg/mL; in the assay with A. fumigatus MX 5944, 0.12 to 0.5 µg/mL; in the assay on A. fumigatus MYA-3626 it was 0.25 to 0.5 µg/mL; in the assay on A. fumigatus MYA-4609 it was 0.12 to 1 µg/mL.
Regarding `CC[C@H](C)C[C@H](C)CCCCCCCCC(=O)N[C@H]1C[C@@H](O)[C@@H](OCCN)NC(=O)[C@@H]2[C@@H](O)CCN2C(=O)[C@H]([C@H](O)CCNC(=O)[C@H](Cc2ccccc2)NC(=O)[C@H](CC(C)C)NC(=O)[C@H](CCSC)NC=O)NC(=O)[C@H]([C@H](O)[C@@H](O)c2ccc(O)cc2)NC(=O)[C@@H]2C[C@@H](O)CN2C(=O)[C@H]([C@@H](C)O)NC1=O` [Compound 11], the MEC with A. flavus MX 5948 was 0.06 µg/mL; in the assay on A. fumigatus ATCC 13073, “≦0.06-0.06 μg/mL”; in the assay with A. fumigatus MX 5944, 0.12 µg/mL; in the assay on A. fumigatus MYA-3626 it was 0.06 to 0.12 µg/mL; in the assay with A. fumigatus MYA-4609, 0.06 µg/mL.
As to “caspofungin acetate [reference compound]”, the MEC result is “≦0.015-0.06 μg/mL” in the assay on A. flavus MX 5948; “≦0.03-0.06 μg/mL” in the assay on A. fumigatus ATCC 13073; 0.03 to 0.12 µg/mL in the assay on A. fumigatus MX 5944; “≦0.03-0.12 μg/mL” with A. fumigatus MYA-3626; “≦0.03-1^ μg/mL” in the assay with A. fumigatus MYA-4609.

(Values after patent publication US20160213742A1, “COMPOSITIONS AND METHODS FOR THE TREATMENT OF FUNGAL INFECTIONS” (priority 2013, published 2016).)
